ChEMBL document CHEMBL1201862, “PubChem BioAssay data set” (2004)
Active and inactive are the calls of the source.

Columns and labels:
Cytochrome P450 1A2 = biological target: T1, Cytochrome P450 1A2 (Homo sapiens, UniProt P05177);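 further: PubChem cytochrome P450 panel assay, CYP1A2 panel member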
T1 sequence (P05177 whole entry): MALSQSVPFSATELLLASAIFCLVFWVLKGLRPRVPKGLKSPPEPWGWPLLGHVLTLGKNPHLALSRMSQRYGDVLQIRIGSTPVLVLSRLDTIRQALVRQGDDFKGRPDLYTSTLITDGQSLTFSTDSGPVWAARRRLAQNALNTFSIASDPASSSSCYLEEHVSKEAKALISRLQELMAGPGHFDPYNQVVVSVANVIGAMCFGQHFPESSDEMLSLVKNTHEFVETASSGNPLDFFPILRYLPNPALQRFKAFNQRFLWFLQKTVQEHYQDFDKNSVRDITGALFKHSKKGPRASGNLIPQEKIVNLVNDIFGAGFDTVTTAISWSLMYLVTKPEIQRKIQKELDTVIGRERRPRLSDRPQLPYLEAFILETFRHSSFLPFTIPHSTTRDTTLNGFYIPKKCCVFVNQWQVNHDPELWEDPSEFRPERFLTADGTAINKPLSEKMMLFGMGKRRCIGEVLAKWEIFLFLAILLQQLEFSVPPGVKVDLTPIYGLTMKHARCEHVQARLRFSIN

Cytochrome P450 2C19 = Cytochrome P450 2C19 (Homo sapiens, UniProt P33261); experiment: Cytochrome panel assay with activity outcomes. Panel member name: p450-cyp2c19 Compounds with AC50 equal or less than 10 uM are considered active; type: functional
Chain of Cytochrome P450 2C19 (P33261 whole entry): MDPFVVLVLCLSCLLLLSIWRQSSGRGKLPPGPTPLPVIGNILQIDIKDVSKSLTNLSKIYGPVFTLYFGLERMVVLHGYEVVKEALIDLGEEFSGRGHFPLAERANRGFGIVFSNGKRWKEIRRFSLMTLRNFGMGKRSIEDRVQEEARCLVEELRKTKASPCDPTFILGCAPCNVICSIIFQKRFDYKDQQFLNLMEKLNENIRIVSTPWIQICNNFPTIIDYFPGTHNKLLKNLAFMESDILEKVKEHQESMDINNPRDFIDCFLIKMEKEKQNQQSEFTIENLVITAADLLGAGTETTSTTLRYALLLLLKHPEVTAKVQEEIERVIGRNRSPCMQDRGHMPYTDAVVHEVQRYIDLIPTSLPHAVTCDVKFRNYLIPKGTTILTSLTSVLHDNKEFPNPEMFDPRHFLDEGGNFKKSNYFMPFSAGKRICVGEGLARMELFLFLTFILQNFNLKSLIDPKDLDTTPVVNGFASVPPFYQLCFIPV

Cytochrome P450 3A4 = Cytochrome P450 3A4 (Homo sapiens, UniProt P08684);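 further: CYP3A4 tested as one member of a cytochrome P450 panel screen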
Chain of Cytochrome P450 3A4 (P08684 whole entry): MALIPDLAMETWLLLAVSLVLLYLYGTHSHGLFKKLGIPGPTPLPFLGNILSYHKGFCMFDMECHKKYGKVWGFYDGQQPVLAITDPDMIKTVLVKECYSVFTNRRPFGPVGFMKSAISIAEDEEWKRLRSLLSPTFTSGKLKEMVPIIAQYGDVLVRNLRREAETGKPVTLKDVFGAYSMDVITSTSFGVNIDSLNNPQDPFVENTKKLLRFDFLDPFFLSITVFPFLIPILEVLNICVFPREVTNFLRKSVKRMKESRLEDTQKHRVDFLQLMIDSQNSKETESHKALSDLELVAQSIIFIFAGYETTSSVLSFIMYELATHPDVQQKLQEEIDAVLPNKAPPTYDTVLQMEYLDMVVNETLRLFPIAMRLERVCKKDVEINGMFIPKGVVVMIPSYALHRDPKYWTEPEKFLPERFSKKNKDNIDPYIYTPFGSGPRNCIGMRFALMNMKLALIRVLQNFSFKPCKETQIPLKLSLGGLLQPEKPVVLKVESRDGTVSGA

Cytochrome P450 2C9 = Cytochrome P450 2C9 (Homo sapiens, UniProt P11712)
Chain of Cytochrome P450 2C9 (P11712 whole entry): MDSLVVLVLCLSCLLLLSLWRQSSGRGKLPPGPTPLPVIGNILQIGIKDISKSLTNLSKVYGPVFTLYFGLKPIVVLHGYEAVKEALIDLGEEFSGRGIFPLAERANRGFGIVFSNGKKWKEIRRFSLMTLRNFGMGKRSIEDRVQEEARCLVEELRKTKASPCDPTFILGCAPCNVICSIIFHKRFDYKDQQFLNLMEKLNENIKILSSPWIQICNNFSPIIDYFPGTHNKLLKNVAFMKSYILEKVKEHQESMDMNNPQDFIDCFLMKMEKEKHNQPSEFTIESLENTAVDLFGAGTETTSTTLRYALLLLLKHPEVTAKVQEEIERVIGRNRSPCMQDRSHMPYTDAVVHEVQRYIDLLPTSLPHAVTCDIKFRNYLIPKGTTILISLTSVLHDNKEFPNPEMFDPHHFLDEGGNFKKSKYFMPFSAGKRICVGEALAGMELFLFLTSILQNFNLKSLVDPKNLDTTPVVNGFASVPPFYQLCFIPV

Cytochrome P450 2D6 = Cytochrome P450 2D6 (Homo sapiens, UniProt P10635);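 further: CYP2D6 member of a cytochrome P450 panel assay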
Chain of Cytochrome P450 2D6 (P10635 whole entry): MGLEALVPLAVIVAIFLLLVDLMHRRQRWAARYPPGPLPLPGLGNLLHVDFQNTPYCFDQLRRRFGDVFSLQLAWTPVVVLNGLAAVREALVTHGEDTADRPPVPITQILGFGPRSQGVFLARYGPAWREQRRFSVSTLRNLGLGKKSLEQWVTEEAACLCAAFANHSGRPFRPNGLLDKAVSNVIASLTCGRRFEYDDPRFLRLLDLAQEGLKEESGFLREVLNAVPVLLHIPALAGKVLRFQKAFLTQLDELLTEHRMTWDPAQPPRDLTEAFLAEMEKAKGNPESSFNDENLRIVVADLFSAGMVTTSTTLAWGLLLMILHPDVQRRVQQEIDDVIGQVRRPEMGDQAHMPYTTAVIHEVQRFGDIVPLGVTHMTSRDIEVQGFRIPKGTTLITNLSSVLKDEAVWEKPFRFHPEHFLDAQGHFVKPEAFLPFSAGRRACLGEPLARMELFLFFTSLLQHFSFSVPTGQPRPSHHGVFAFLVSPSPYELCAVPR

[1] = biological target: T2, Replicative DNA helicase DnaB (Mycobacterium tuberculosis, UniProt P9WMR3); experiment: DnaB intein splicing inhibitors, dose response, biochemical, cell-free fluorescence (AID 449749); type: functional
T2 sequence (P9WMR3 whole entry): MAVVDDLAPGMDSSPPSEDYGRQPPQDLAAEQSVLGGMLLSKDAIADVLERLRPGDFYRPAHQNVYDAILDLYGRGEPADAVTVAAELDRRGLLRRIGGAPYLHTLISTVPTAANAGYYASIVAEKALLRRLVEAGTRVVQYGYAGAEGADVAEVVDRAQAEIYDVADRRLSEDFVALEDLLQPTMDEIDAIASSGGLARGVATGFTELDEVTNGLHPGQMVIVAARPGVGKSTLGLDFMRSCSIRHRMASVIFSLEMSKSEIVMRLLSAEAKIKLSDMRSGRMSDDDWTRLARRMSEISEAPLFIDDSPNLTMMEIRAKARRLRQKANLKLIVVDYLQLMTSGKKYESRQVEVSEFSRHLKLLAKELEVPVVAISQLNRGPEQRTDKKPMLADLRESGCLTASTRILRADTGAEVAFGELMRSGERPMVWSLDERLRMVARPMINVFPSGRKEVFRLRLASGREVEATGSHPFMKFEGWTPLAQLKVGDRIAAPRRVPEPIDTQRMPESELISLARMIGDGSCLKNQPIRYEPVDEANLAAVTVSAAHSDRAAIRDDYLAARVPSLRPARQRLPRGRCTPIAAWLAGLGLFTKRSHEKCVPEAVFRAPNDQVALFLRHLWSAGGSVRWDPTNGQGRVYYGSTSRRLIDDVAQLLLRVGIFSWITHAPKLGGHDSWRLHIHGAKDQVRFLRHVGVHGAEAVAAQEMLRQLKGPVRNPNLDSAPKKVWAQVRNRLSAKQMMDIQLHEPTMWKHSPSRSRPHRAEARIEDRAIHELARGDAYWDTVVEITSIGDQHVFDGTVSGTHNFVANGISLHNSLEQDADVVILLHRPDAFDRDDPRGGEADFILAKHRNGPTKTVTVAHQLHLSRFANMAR

Protein RecA = biological target: T3, Protein RecA (Mycobacterium tuberculosis, UniProt P9WHJ3); experiment: Fluorescence Cell-Free Homogeneous Dose Retest to Identify Inhibitors of RecA-Intein Splicing Activity. [Related pubchem assays (depositor defined):AID2097, AID2223, AID489010, AID492950]; type: functional
T3 sequence (P9WHJ3 whole entry): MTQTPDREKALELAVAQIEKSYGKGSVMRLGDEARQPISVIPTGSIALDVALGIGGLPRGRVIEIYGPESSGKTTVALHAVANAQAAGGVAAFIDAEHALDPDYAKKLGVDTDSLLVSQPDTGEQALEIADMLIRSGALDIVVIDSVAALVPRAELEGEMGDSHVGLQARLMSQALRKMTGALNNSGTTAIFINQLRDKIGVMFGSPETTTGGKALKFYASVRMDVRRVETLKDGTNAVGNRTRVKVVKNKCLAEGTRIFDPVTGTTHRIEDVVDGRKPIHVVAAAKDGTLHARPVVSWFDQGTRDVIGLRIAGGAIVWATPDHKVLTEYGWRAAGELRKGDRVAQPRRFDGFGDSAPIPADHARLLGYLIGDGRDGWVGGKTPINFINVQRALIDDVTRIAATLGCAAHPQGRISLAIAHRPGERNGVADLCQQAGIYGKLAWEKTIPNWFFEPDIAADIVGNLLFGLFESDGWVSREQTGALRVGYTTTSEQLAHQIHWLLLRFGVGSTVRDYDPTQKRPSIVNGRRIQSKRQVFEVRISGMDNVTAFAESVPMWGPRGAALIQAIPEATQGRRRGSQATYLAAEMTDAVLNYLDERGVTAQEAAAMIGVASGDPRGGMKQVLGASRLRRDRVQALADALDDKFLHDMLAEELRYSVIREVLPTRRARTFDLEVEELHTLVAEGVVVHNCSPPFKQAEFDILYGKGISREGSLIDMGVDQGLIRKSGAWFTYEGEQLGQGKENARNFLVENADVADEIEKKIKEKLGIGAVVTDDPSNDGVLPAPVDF

[2] = biological target: T4, Heat shock factor protein 1 (Mus musculus, UniProt P38532); experiment: inhibition of MG132-induced HSE-luciferase signal, confirmation, cell-based, NIH3T3, luminescence, dose retest (AID 2382); type: functional;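 further: NIH3T3 fibroblasts with HSF1-driven luciferase reporter stressed by proteasome inhibitor MG132; luminescence from HSF1-driven luciferase expression after 8 hours of MG132 stress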
T4 sequence (P38532 whole entry): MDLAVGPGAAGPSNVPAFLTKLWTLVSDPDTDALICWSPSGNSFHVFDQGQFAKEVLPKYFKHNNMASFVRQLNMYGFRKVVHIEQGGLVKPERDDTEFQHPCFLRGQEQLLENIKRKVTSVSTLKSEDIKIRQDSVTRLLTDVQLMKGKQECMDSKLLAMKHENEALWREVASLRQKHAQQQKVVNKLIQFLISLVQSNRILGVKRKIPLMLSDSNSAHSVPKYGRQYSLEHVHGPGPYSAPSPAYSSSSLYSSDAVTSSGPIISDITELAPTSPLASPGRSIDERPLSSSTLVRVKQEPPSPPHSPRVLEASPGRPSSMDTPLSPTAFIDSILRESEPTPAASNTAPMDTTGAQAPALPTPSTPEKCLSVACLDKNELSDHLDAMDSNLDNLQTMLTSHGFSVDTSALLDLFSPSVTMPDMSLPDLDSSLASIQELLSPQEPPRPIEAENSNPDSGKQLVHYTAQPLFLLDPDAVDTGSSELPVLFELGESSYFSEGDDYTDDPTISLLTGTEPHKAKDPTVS

[3] = C. albicans growth with fluconazole, confirmation, fluorescence, retest (AID 2467); type: functional, cell-based

Row | Structure (SMILES) | AC50 (Cytochrome P450 1A2) | AC50 (Cytochrome P450 2C19; read-out: AC50) | AC50 (Cytochrome P450 3A4) | AC50 (Cytochrome P450 2D6) | also measured
1 | CN(C)Cc1ccccc1-c1cncnc1NCc1cccnc1 | 12.6 µM (inconclusive) | – | – | – | –
2 | O=C1c2ccccc2CC[C@H]1CNCCc1ccc(O)cc1 | – | 31.6 µM (inconclusive) | 7.94 µM (inconclusive) | – | AC50 (Cytochrome P450 2C9): 39.8 µM (inconclusive)
3 | CC1=C[N+](=O)c2ccccc2[N+]1=O | 6.31 µM (inconclusive) | – | – | – | –
4 | COc1ccc(-c2cc(C(F)(F)F)n3nc(C(=O)NCc4ccco4)c(Cl)c3n2)cc1 | – | 1.78 µM (inconclusive) | 3.16 µM (inconclusive) | – | –
5 | FC(F)(F)c1ccccc1-c1nc(NC2CC2)c2ccccc2n1 | – | 10 µM (inconclusive) | – | 31.6 µM (inconclusive) | –
6 | C/C(CC(=O)Nc1cc(C)ccn1)=N\NC(=O)C(=O)NC(C)C | – | – | – | – | AC50 [1]: 19.6 µM (active); EC50 (Protein RecA): 4.48 µM (active)
7 | COc1cccc(C(=O)O/N=C(\N)c2ccc([N+](=O)[O-])cc2)c1OC | – | – | – | – | AC50 [1]: > 380 µM (inactive); EC50 (Protein RecA): > 380 µM (inactive)
8 | Cc1ccc(S(=O)(=O)O[C@H]2CN3CCC2CC3)cc1 | – | – | – | 3.98 µM (inconclusive) | –
9 | COc1ccccc1CNc1ncnc2ccc(-c3ccc(C(=O)N(C)C)cc3)cc12 | – | 20 µM (inconclusive) | – | 39.8 µM (inconclusive) | –
10 | CN1CCN(c2ncc3nc(-c4cn(C)c5ccccc45)c(=O)n(CCC#N)c3n2)CC1 | – | 39.8 µM (inconclusive) | 25.1 µM (inconclusive) | 39.8 µM (inconclusive) | AC50 (Cytochrome P450 2C9): 39.8 µM (inconclusive)
11 | Cc1[nH]c2ccccc2c1C(c1ccccn1)N1CCC(C)CC1 (centres undefined) | – | – | – | 25.1 µM (inconclusive) | –
12 | CCOc1ccc(C(=O)C2=C(O)C(=O)N(CCCn3ccnc3)C2c2cccs2)cc1Cl (centres undefined) | – | – | – | 14.1 µM (inconclusive) | EC50 [2]: > 195 µM (not active)
13 | CNC(=O)/C=C1\NC(C)(C)Cc2c1ccc1ccccc21 | – | – | 15.8 µM (inconclusive) | – | AC50 (Cytochrome P450 2C9): 5.01 µM (inconclusive)
14 | CN1CCCC[C@@H]1CCN1CCCCC1 | 0.01 µM (inconclusive) | – | – | – | –
15 | C[S+]([O-])c1ccccc1-c1nc(-c2cc(C(F)(F)F)cc(C(F)(F)F)c2)no1 (centres undefined) | 2.24 µM (inconclusive) | 8.91 µM (inconclusive) | – | – | AC50 (Cytochrome P450 2C9): 17.8 µM (inconclusive)
16 | Cc1cc(C)c(S(C)(=O)=O)c(Oc2cccc(C(F)(F)F)c2)n1 | – | – | – | – | AC50 [1]: 213 µM (active); EC50 (Protein RecA): > 380 µM (inactive)
17 | Cn1cc(C(=O)N/N=C/C(Br)=C\c2ccccc2)ccc1=O | 3.55 µM (inconclusive) | 28.2 µM (inconclusive) | – | – | –
18 | c1nc(NC2CCNCC2)c2cc(-c3ccc4c(c3)OCO4)ccc2n1 | – | – | – | 20 µM (inconclusive) | –

Row | Structure (SMILES) | AC50 (Cytochrome P450 1A2) | AC50 (Cytochrome P450 2C19; read-out: AC50) | AC50 (Cytochrome P450 3A4) | AC50 (Cytochrome P450 2D6) | also measured
19 | Cn1ncc([N+](=O)[O-])c1C(=O)Nc1ccc2c(c1)OCCO2 | – | 0.0355 µM (inconclusive) | – | 12.6 µM (inconclusive) | AC50 (Cytochrome P450 2C9): 11.2 µM (inconclusive)
20 | N#CCCSC(=S)[C@H]1CCCC1=N | – | 5.01 µM (inconclusive) | 2.51 µM (inconclusive) | – | –
21 | CCCCN(c1ccccc1)c1ncnc2c1cnn2C | 0.631 µM (inconclusive) | – | – | – | –
22 | C/C=C(\C)C(=O)O[C@@H]1C(C)=C2[C@H]([C@@H]1OC(=O)CCCCCCC)[C@@](C)(OC(C)=O)C[C@@H](OC(=O)CCC)[C@@]1(O)[C@H]2OC(=O)[C@]1(C)O | 39.8 µM (inconclusive) | – | – | 39.8 µM (inconclusive) | –
23 | CCOc1cc(/C=C(\C#N)C(=O)Nc2cccc(C(=O)O)c2)cc(Br)c1OC(=O)c1ccc(OC)cc1 | – | – | – | – | AC50 [1]: 4.04 µM (active); EC50 (Protein RecA): 13.2 µM (active)
24 | CS(=O)(=O)N1CCC2(CCCN(c3ccccn3)C2)CC1 | 25.1 µM (inconclusive) | 15.8 µM (inconclusive) | 15.8 µM (inconclusive) | 25.1 µM (inconclusive) | –
25 | CCOC(=O)C1CCCN(C(=O)CCn2nc(-c3ccccc3)ccc2=O)C1 (centres undefined) | – | – | 17.8 µM (inconclusive) | – | AC50 (Cytochrome P450 2C9): 31.6 µM (inconclusive)
26 | CCCCCCCCC(=O)NCc1ccc(O)c(OC)c1 [NONIVAMIDE] | – | 7.94 µM (inconclusive) | – | 25.1 µM (inconclusive) | –
27 | CN(Cc1ccco1)C(=O)C1CCC(=O)N1Cc1ccc(F)cc1 (centres undefined) | – | – | – | 25.1 µM (inconclusive) | –
28 | O=[N+]([O-])c1ccc2c(/N=N\c3ccc4ccccc4c3O)c(O)cc(S(=O)(=O)O)c2c1 | – | 2.51 µM (inconclusive) | 3.98 µM (inconclusive) | 0.631 µM (inconclusive) | –
29 | Cc1nc2ccccc2cc1C[N+]12CN3CN(CN(C3)C1)C2 | 0.631 µM (inconclusive) | – | – | – | –
30 | CC(=O)c1cccc(NC(=O)Oc2ccccc2)c1 | 28.2 µM (inconclusive) | – | – | – | AC50 (Cytochrome P450 2C19): inconclusive
31 | C/C(=C\C(=O)c1ccc(Cl)cc1)NCc1ccc2c(c1)OCO2 | – | – | 0.794 µM (inconclusive) | 5.01 µM (inconclusive) | –
32 | Nc1ccc(SCCN2C(=O)c3ccccc3C2=O)cc1 | – | – | – | – | EC50 [3]: > 38 µM (not active)
33 | O=C(c1ccccc1)[C@H]1[C@H](c2ccccc2[N+](=O)[O-])N1C1CCCCC1 (some centres undefined) | 0.631 µM (inconclusive) | – | 3.98 µM (inconclusive) | – | –
34 | COC(=O)[C@H]1C[C@@H]1[C@H](NC(=O)c1cnccn1)c1ccccc1 | – | – | 7.94 µM (inconclusive) | – | –
35 | CCOc1cc(/C=C2\C(=N)N3N=C(S(=O)(=O)CC)SC3=NC2=O)ccc1OC(=O)c1ccco1 | – | – | – | – | AC50 [1]: > 380 µM (inactive); EC50 (Protein RecA): 22.1 µM (active)
36 | Cc1c(-c2c(C#N)c(N)nc3c2CCCCCC3)cnn1C | 35.5 µM (inconclusive) | – | – | – | AC50 (Cytochrome P450 2C9): 22.4 µM (inconclusive)
